Legend:
[1] = Octanol-water distribution coefficient (log P), lipophily
Protocol: The lipophily value P gives low lipophility at a low value of the logarithm of P (log P), and a high value of the log P gives high lipophily. The distribution coefficient P is measured at pH 7.4 and 21° C. in octanol water.

[2] = Permeation of active ingredient from formulations through isolated human Stratum corneum (modified Franz cell); conditions: active ingredient in the inventive formulation
Protocol: To determine the permeation of an active ingredient from the inventive formulation compared to conventional formulations containing active ingredients pharmaceutical preparations containing 5-aminolevulinic acid were tested in vitro on isolated human skin.
Human Stratum corneum, originating from biopsies of plastic operations, was used as isolated human skin. Following the biopsy subcutaneous fat was removed and the skin was frozen in liquid nitrogen, then stored at −25° C. After gradual thawing the Stratum corneum was isolated by trypsination on filter paper, and impregnated with an aqueous 2% trypsin solution. After incubation at 37° C. for 24 h the Stratum corneum could be lifted off, incubated in a 0.01% aqueous solution trypsin inhibitor and then washed several times in water. This isolated horny layer was dried and stored at room temperature in the desiccator. For permeation examinations a modified Franz cell was used, the compartments of which were separated off through the Stratum corneum. Pretreatment of the Stratum corneum is done by total hydration in water and placement on a polycarbonate filter (Isopor membrane filter, type TMTP, 5.0 μm, Millipore) to boost mechanical stability. The donor compartment was filled with inventive or respectively comparative formulation containing 5-aminolevulinic acid, whereby 5-aminolevulinic acid at 10% by weight was contained in the formulations.
The preparation containing 5-aminolevulinic acid, procurable according to Example 2, was tested for permeation as inventive preparation, as compared to a formulation with conventional cream base according to the German Pharmacopoeia (70 parts water, 30 parts hydrophilic salve from 30 parts emulsifying cetylstearyl alcohol (type A), 35 parts viscid paraffin and 35 parts soft Vaseline), and in comparison to a formulation in dolgit microgel (5% by weight ibuprofen, in 2-propanol, dimethyl isosorbide, poloxamer, medium-chain triglycerides, lavender oil, neroli oil and water).
After application the quantity of active ingredient permeated through the skin was measured.

SMILES	logP ([1]; octanol/water, pH 7.4)	log P ([1]; octanol water, pH 7.4, 21° C.)	permeation of the active ingredient from the inventive formulation through the human Stratum corneum [2]	other results
CCCCOC(=O)CCC(=O)CN [5-ALA-butylester, 5-aminolevulinic acid butyl ester]	1.42			
NCC(=O)CCC(=O)OC1CCCCC1 [5-ALA-cyclohexylester]		1.494		
CCOC(=O)CCC(=O)CN [5-ALA-ethylester]		0.8411		
COC(=O)CCC(=O)CN [5-ALA-methylester, methyl ester of 5-aminolevulinic acid]				log P ([1]; pH 7.4): −0.9423
CCCCCCCCOC(=O)CCC(=O)CN [5-ALA-octylester]		2.6199		
CC(=O)Oc1ccccc1C(=O)O [acetylsalicylic acid]	-1.15		improvement in permeation	
CC(=O)OCC(=O)[C@@]1(O)CC[C@H]2[C@@H]3CCC4=CC(=O)CC[C@]4(C)[C@H]3[C@@H](O)C[C@@]21C [hydrocortisone acetate]			improvement in permeation	logP ([1]; pH 7.4): 2.18

More lines, main results first:

logP ([1]; octanol/water, pH 7.4)	log P ([1]; octanol water, pH 7.4, 21° C.)	permeation of the active ingredient from the inventive formulation through the human Stratum corneum [2]	SMILES	other results
	1.839		CCCCCCOC(=O)CCC(=O)CN [5-ALA-hexylester]	
-1.52			NCC(=O)CCC(=O)O [Example 5-ALA, 5-aminolevulinic acid]	
		improvement in permeation	Clc1ccccc1C(c1ccccc1)(c1ccccc1)n1ccnc1 [clotrimazole]	logP ([1]; pH 7.4): 4.1
3.3		improvement in permeation	CN(C/C=C/C#CC(C)(C)C)Cc1cccc2ccccc12 [terbinafine]	

Source: US20080227757A1, “Formulation for dermal application” (priority 2005, published 2008)
